Series [1] is described as follows: Glutathione reactivity assessed as second-order rate constant at 250 uM at pH 6.0 by HPLC-UV method.
The next series deals with HaCaT. Kind of series: Cytotoxicity against human HaCaT cells at 1.6 to 100 ug/ml after 72 hrs by crystal violet assay. It counts as cell-based.
A short description of series [2]: Cytotoxicity against human Flow 2002 cells at 1.6 to 100 ug/ml after 72 hrs by crystal violet assay. It counts as cell-based. The settings on record: flow 2002, 72 h.
Another series deals with A 172. The experiment in a line: Cytotoxicity against human A172 cells at 1.6 to 100 ug/ml after 72 hrs by crystal violet assay. It counts as functional, cell-based.
A further series concerns CAPAN-1. Kind of series: Cytotoxicity against human Capan1 cells at 1.6 to 100 ug/ml after 72 hrs by crystal violet assay. It counts as functional, cell-based.
The test system of a further series is Ca-Ski. The experiment in a line: Cytotoxicity against human CaSki cells at 1.6 to 100 ug/ml after 72 hrs by crystal violet assay. It counts as functional, cell-based.
The subject of another series is SW707. The experiment in a line: Cytotoxicity against human SW707 cells at 1.6 to 100 ug/ml after 72 hrs by crystal violet assay. It counts as functional, cell-based.
The subject of the next series is Calu-6. The experiment in a line: Cytotoxicity against human Calu6 cells at 1.6 to 100 ug/ml after 72 hrs by crystal violet assay. It counts as functional, cell-based.
The subject of another series is MeWo. Kind of series: Cytotoxicity against human MeWo cells at 1.6 to 100 ug/ml after 72 hrs by crystal violet assay. It counts as functional, cell-based.
The test system of the next series is BT-474. The experiment in a line: Cytotoxicity against human BT474 cells at 1.6 to 100 ug/ml after 72 hrs by crystal violet assay. It counts as functional, cell-based.
A further series has as its system A-431. The experiment in a line: Cytotoxicity against human A431 cells at 1.6 to 100 ug/ml after 72 hrs by crystal violet assay. It counts as functional, cell-based.
Series [3] has as its target T1, Methionine aminopeptidase (Escherichia coli K-12, UniProt P0AE18).
T1 sequence (P0AE18 whole entry): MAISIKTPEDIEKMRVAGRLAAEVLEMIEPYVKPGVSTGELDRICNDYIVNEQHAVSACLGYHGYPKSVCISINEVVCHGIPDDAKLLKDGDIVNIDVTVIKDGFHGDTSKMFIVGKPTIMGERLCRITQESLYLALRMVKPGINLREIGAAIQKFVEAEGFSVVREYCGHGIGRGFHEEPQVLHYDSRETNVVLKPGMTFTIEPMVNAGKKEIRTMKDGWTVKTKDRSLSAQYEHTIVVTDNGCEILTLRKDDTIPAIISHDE
The experiment in a line: Inhibition of C-terminal poly-His-tagged Escherichia coli MetAP expressed in Escherichia coli BL21(DE3) incubated for 30 mins before MGMM substrate addition by fluorescence assay.

Series [4] deals with Methionine aminopeptidase (Staphylococcus aureus (strain COL), UniProt Q5HEN6). Kind of series: Inhibition of N-terminal poly-His-tagged Staphylococcus aureus COL MetAP expressed in Escherichia coli BL21(DE3) incubated for 30 mins before MGMM substrate addition by fluorescence assay. Also noted: species or system Staphylococcus aureus subsp. aureus COL.
In series [5] the target is Methionine aminopeptidase 1 (Homo sapiens, UniProt P53582). Kind of series: Inhibition of N-terminal poly-His-tagged human MetAP-1 expressed in Escherichia coli BL21(DE3) incubated for 30 mins before MGMM substrate addition by fluorescence assay.
Series [6] concerns Escherichia coli. Kind of series: Antimicrobial activity against Escherichia coli BL21(DE3) assessed as inhibition of bacterial growth at 200 uM incubated at 37 degC for 7 hrs. It counts as functional. The settings on record: for inhibition at 200 µM: BL21-DE3, 7 h.
Series [7] can be described thus: Half life assessed as decomposition into amines and unsaturated ketones at 250 uM in 50 mM Tris/maleate pH 7.5 buffer by HPLC method. The settings on record: for half-life at 250 µM: Tris/maleate buffer, pH 7.5; for t1/2: buffer, pH 7.5, 250 µM. It counts as physicochemical.
Series [8] deals with Methionine aminopeptidase 2 (Homo sapiens, UniProt P50579). Conditions: sf9.
Description: Inhibition of human MetAP-2 expressed in Sf9 cells incubated for 60 mins before MGMM substrate addition by fluorescence assay
Series [9] concerns Escherichia coli. The experiment in a line: Antimicrobial activity against Escherichia coli BL21(DE3) assessed as inhibition of bacterial growth incubated at 37 degC for 7 hrs. It counts as functional.

By IC50 is commonly meant the concentration that inhibits the measured activity by half. In general, inhibition refers to the share of the control response that was lost under treatment. As usually defined, the half-life is how long it takes for the measured level to halve. The MIC is the least concentration at which growth counts as inhibited.

Active and inactive are the calls of the source. The rule behind the calls is not given here.

Methionine aminopeptidase (Staphylococcus aureus (strain COL), UniProt Q5HEN6), sequence (Q5HEN6 whole entry): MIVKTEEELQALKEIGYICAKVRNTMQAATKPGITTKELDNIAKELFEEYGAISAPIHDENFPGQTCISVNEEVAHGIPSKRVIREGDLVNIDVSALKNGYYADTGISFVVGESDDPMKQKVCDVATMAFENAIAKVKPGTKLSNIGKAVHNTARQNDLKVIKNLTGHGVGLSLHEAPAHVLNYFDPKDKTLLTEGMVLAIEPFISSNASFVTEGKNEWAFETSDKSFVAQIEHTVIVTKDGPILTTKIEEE
Methionine aminopeptidase 2, sequence (P50579 whole entry): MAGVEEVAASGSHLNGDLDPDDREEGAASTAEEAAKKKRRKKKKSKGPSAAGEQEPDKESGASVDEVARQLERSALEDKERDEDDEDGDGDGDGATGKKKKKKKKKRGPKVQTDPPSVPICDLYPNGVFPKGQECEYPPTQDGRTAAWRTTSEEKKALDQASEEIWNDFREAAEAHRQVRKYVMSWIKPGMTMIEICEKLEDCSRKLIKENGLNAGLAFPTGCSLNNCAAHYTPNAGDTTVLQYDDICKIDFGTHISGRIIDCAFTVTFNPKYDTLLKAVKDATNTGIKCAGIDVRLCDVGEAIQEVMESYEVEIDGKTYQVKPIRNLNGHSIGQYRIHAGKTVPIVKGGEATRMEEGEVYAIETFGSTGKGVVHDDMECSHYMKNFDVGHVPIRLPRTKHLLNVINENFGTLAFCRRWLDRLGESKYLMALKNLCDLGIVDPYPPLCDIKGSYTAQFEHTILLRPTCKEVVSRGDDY

Regarding `C=C1CCc2ccccc2C1=O`, the K in [1] was found to be 1.4 M⁻¹ s⁻¹. For the same compound, the Activity result (in the series with HaCaT; in series [2]) was “Toxic” each time. Also, the result in the series with A 172, with CAPAN-1, in the series on Ca-Ski, in the series with SW707, in the series on Calu-6 and with MeWo was Active. Moreover, the outcome in the series with BT-474 and in the series on A-431 was Active.

As for `C=C1CCc2ccc(OC)cc2C1=O`, the K in series [1] stood at 1.7 M⁻¹ s⁻¹. Besides, the Activity result (in the series on HaCaT; in series [2]) was “Toxic” in each case. Further, the outcome in the series with A 172, with CAPAN-1, with Ca-Ski, with SW707, in the series on Calu-6 and in the series on MeWo was Active. Further, the result in the series on BT-474 and with A-431 was Active.

For the compound `COc1cc2c(cc1OC)C(=O)C(CN(C)C)C2.Cl` (stereo not drawn), the IC50 in series [3] (read-out: IC50) was 1.7 µM; in series [4] (read-out: IC50) it was 18.9 µM; in series [5], “Not Active”; in [8], “Not Active”. Moreover, in the series with Escherichia coli [6], the inhibition at 200 µM amounted to 17%. Further, the half-life at 250 µM in [7] amounted to 0.933 h. For the same compound, the Activity entry (with HaCaT; in series [2]) was “Toxic” each time. Also, the outcome in the series on A 172, in the series with CAPAN-1, with Ca-Ski, in the series with SW707, in the series on Calu-6 and with MeWo was Active. The result in the series with BT-474 and in the series on A-431 was Active.

Take `CN(C)[C@@H]1C(O)=C(C(N)=O)C(=O)[C@@]2(O)C(O)=C3C(=O)c4c(O)cccc4[C@@](C)(O)[C@H]3C[C@@H]12.Cl` [TETRACYCLINE HYDROCHLORIDE]: the MIC in the series on Escherichia coli [9] came out at 1 mg/L.

On to `NC[C@H]1O[C@H](O[C@H]2[C@H](O)[C@@H](O[C@H]3O[C@H](CO)[C@@H](O)[C@H](N)[C@H]3O)[C@H](N)C[C@@H]2N)[C@H](O)[C@@H](O)[C@@H]1O.O=S(=O)(O)O` [KANAMYCIN SULFATE], for which, in the series with Escherichia coli [9], the MIC stood at 10 mg/L.

Consider `Cl.O=C(CCN1CCCCC1)c1ccccc1`, for which the IC50 entry in [3], in series [4], in series [5] and in [8] was “Not Active” throughout. The inhibition result in the series with Escherichia coli [6] was “inactive”. Further, in [7], the t1/2 result is listed as “Stable”. Also, the Activity result (in the series on HaCaT; in series [2]) was “Toxic” throughout. Besides, the result in the series with A 172, in the series with CAPAN-1, in the series with Ca-Ski, with SW707, in the series with Calu-6 and with MeWo was Active. Besides, the outcome with BT-474 and in the series on A-431 was Active.

As for `COc1ccc2c(c1)C(=O)C(CN1CCCCC1)CC2.Cl` (stereo not drawn), the concentration for half-maximal inhibition (IC50) in series [3] (read-out: IC50) is 3.7 µM; in series [4] it was “Not Active”; in series [5] it was “Not Active”; in series [8], “Not Active”. For the same compound, the inhibition at 200 µM in the series with Escherichia coli [6] was 30%. In addition, the half-life at 250 µM in [7] stood at 10.5 h. Also, the Activity result (in the series with HaCaT; in series [2]) was “Toxic” in each case. Further, the result in the series with A 172, in the series with CAPAN-1, in the series with Ca-Ski, with SW707, in the series on Calu-6 and in the series on MeWo was Active. The outcome in the series with BT-474 and with A-431 was Active.

Turning to `C[C@@H]1O[C@@H]1P(=O)([O-])[O-].[Na+].[Na+]` [PHOSPHOMYCIN DISODIUM], the MIC in the series with Escherichia coli [9] was 20 mg/L.

As for `Cc1cc(C)c2c(c1)C(=O)C(CN(C)C)CC2.Cl` (stereo not drawn), the half-inhibitory concentration (IC50) was 45.5 µM in series [3] (read-out: IC50), “Not Active” in series [4], “Not Active” in [5] and “Not Active” in series [8]. Moreover, the inhibition at 200 µM in the series on Escherichia coli [6] amounted to 56%. Besides, the half-life at 250 µM in series [7] was 14.4 h. Also, the Activity result (with HaCaT; in series [2]) was “Toxic” throughout. The outcome with A 172, in the series on CAPAN-1, with Ca-Ski, with SW707, with Calu-6 and in the series on MeWo was Active. Moreover, the outcome in the series with BT-474 and in the series with A-431 was Active.

Turning to `COc1ccc2c(c1)C(=O)C(CN(C)C)CC2.Cl` (stereo not drawn), the 50% inhibitory concentration (IC50) is 2.1 µM in [3] (read-out: IC50), “Not Active” in series [4], “Not Active” in series [5] and “Not Active” in [8]. For the same compound, in the series on Escherichia coli [6], the inhibition at 200 µM was 49%. In series [7], the half-life at 250 µM was determined as 6.8 h. Further, the Activity result (in the series with HaCaT; in series [2]) was “Toxic” each time. Further, the result with A 172, in the series on CAPAN-1, in the series with Ca-Ski, in the series on SW707, with Calu-6 and with MeWo was Active. Also, the outcome in the series with BT-474 and in the series with A-431 was Active.

Take `COc1cccc(C(=O)CCN2CCCCC2)c1.Cl`: the concentration for half-maximal inhibition (IC50) result in series [3], in series [4], in series [5] and in series [8] was “Not Active” throughout. In the series on Escherichia coli [6], the inhibition entry was “inactive”. For the same compound, the t1/2 entry in series [7] is “Stable”. For the same compound, the Activity result (in the series on HaCaT; in series [2]) was “Toxic” each time. For the same compound, the result in the series on A 172, in the series with CAPAN-1, in the series with Ca-Ski, with SW707, in the series on Calu-6 and in the series on MeWo was Active. Also, the result in the series on BT-474 and in the series on A-431 was Active.

With `Cl.O=C1c2ccccc2CCC1CN1CCCCC1` (stereo not drawn), the IC50 in series [3] (read-out: IC50) is 9.1 µM; in series [4], “Not Active”; in [5], “Not Active”; in series [8], “Not Active”. For the same compound, the inhibition at 200 µM in the series with Escherichia coli [6] is 28%. Besides, in series [7], the half-life at 250 µM turned out to be 14.4 h. Also, the Activity result (in the series with HaCaT; in series [2]) was “Toxic” in each case. In addition, the outcome in the series on A 172, in the series with CAPAN-1, with Ca-Ski, in the series with SW707, in the series on Calu-6 and in the series on MeWo was Active. For the same compound, the outcome with BT-474 and with A-431 was Active.

In the case of `CC1CC(CN(C)C)C(=O)c2ccccc21.Cl` (stereo not drawn), the half-inhibitory concentration (IC50) is 3.8 µM in [3] (read-out: IC50), “Not Active” in series [4], “Not Active” in series [5] and “Not Active” in [8]. Further, the inhibition at 200 µM with Escherichia coli [6] was determined as 75%. The half-life at 250 µM in series [7] came to 4.82 h. Further, the Activity result (in the series on HaCaT; in series [2]) was “Toxic” throughout. Moreover, the result in the series with A 172, in the series with CAPAN-1, in the series on Ca-Ski, in the series with SW707, in the series on Calu-6 and in the series on MeWo was Active. Further, the result with BT-474 and in the series with A-431 was Active.

The record behind these values is ChEMBL document CHEMBL3351493, “Beta-aminoketones as prodrugs for selective irreversible inhibitors of type-1 methionine aminopeptidases” (Bioorg Med Chem Lett, 2014).
